Data from US20230092001A1, “FURANEOL GLYCOSIDE COMPOUND, PHARMACEUTICAL COMPOSITION THEREOF, PREPARATION METHOD THEREFOR, AND APPLICATION THEREOF” (priority 2019, published 2023).

Columns and labels:
[1] = system: ulcerative colitis model (dextran sodium sulphate); test: Effect Example 3: therapeutic effect on ulcerative colitis, dextran sodium sulphate model, oral gavage, 7 days; type: in vivo, C57 mice; settings: 40 mg/kg oral gavage
Method: Fifty 10-week-old male C57 mice, SPF class animal house, temperature 20-26° C., humidity 40%-70%, alternating light-dark periods (12 h/12 h).
(§1) Quarantine-qualified animals with similar weights were selected for the experiment.
Mice in the blank control group were given normal drinking water throughout the experiment. The other 9 groups of mice were given drinking water containing 2% dextran sodium sulphate from day 1 to day 7. All groups were administered by oral gavage once a day according to table 10, until the end of the experiment.
(§2) (1) The mice were weighed daily.
(2) Blood samples were collected from the orbital vein on day 7 and stored at −80° C.
(3) On day 7, the mice were sacrificed by cervical vertebra dislocation, the colon was removed and a small amount of fecal was taken from the colon and left as a sample. The colon length and colon weight were measured. A portion of the colon and the fecal sample was stored at −80° C.

[2] = system: ulcerative colitis model (dextran sodium sulphate); test: Effect Example 1: therapeutic effect on ulcerative colitis, dextran sodium sulphate model, injected treatment, 14 days; type: in vivo, C57 mice; settings: for Average colon length of mice / Average colon weight of mice / Unit colon weight of mice (colon weight/colon length): day 14
Method: Thirty 10-week-old male C57 mice, SPF class animal house, temperature 20-26° C., humidity 40%-70%, alternating light-dark periods (12 h/12 h).
as §1
Mice in the blank control group were given normal drinking water throughout the experiment. The other 5 groups of mice were given drinking water containing 2% dextran sodium sulphate (DSS) from day 1 to day 5, normal drinking water from day 6 to day 7, drinking water containing 2% dextran sodium sulphate from day 8 to day 12, and normal drinking water from day 13 to day 14. The experiment ended on day 14.
Animals in the blank control group and ulcerative colitis model group were given sterile water intraperitoneally from day 1, once a day; the other 4 groups were administered according to table 1, once a day, until the end of the experiment on day 14. Two hours after the first day of administration, the mice were started to drink water containing dextran sodium sulphate.
as §2
(2) Blood samples were collected from the orbital vein on day 14 and stored at −80° C.
(3) On day 14, the mice were sacrificed by cervical vertebra dislocation, the colon was removed and a small amount of fecal was taken from the colon and left as a sample. The colon length and colon weight were measured. A portion of the colon and the fecal sample was stored at −80° C.

[3] = Day 1, high-dose treatment group 40 mg/kg intraperitoneal injection
[4] = Day 1, low-dose treatment group 10 mg/kg intraperitoneal injection
[5] = Day 1, middle-dose treatment group 20 mg/kg intraperitoneal injection
[6] = Day 2, high-dose treatment group 40 mg/kg intraperitoneal injection
[7] = Day 2, low-dose treatment group 10 mg/kg intraperitoneal injection
[8] = Day 2, middle-dose treatment group 20 mg/kg intraperitoneal injection
[9] = Day 3, high-dose treatment group 40 mg/kg intraperitoneal injection
[10] = Day 3, low-dose treatment group 10 mg/kg intraperitoneal injection
[11] = Day 3, middle-dose treatment group 20 mg/kg intraperitoneal injection
[12] = Day 4, high-dose treatment group 40 mg/kg intraperitoneal injection
[13] = Day 4, low-dose treatment group 10 mg/kg intraperitoneal injection
[14] = Day 4, middle-dose treatment group 20 mg/kg intraperitoneal injection
[15] = Day 5, high-dose treatment group 40 mg/kg intraperitoneal injection
[16] = Day 5, low-dose treatment group 10 mg/kg intraperitoneal injection
[17] = Day 5, middle-dose treatment group 20 mg/kg intraperitoneal injection
[18] = Day 6, high-dose treatment group 40 mg/kg intraperitoneal injection
[19] = Day 6, low-dose treatment group 10 mg/kg intraperitoneal injection
[20] = Day 6, middle-dose treatment group 20 mg/kg intraperitoneal injection
[21] = Day 7, high-dose treatment group 40 mg/kg intraperitoneal injection
[22] = Day 7, low-dose treatment group 10 mg/kg intraperitoneal injection
[23] = Day 7, middle-dose treatment group 20 mg/kg intraperitoneal injection
[24] = Day 8, high-dose treatment group 40 mg/kg intraperitoneal injection
[25] = Day 8, low-dose treatment group 10 mg/kg intraperitoneal injection
[26] = Day 8, middle-dose treatment group 20 mg/kg intraperitoneal injection
[27] = Day 9, high-dose treatment group 40 mg/kg intraperitoneal injection
[28] = Day 9, low-dose treatment group 10 mg/kg intraperitoneal injection
[29] = Day 9, middle-dose treatment group 20 mg/kg intraperitoneal injection
[30] = Day 10, high-dose treatment group 40 mg/kg intraperitoneal injection
[31] = Day 10, low-dose treatment group 10 mg/kg intraperitoneal injection
[32] = Day 10, middle-dose treatment group 20 mg/kg intraperitoneal injection
[33] = Day 11, high-dose treatment group 40 mg/kg intraperitoneal injection
[34] = Day 11, low-dose treatment group 10 mg/kg intraperitoneal injection
[35] = Day 11, middle-dose treatment group 20 mg/kg intraperitoneal injection
[36] = Day 12, high-dose treatment group 40 mg/kg intraperitoneal injection
[37] = Day 12, low-dose treatment group 10 mg/kg intraperitoneal injection
[38] = Day 12, middle-dose treatment group 20 mg/kg intraperitoneal injection
[39] = Day 13, high-dose treatment group 40 mg/kg intraperitoneal injection
[40] = Day 13, low-dose treatment group 10 mg/kg intraperitoneal injection
[41] = Day 13, middle-dose treatment group 20 mg/kg intraperitoneal injection
[42] = Day 14, high-dose treatment group 40 mg/kg intraperitoneal injection
[43] = Day 14, low-dose treatment group 10 mg/kg intraperitoneal injection
[44] = Day 14, middle-dose treatment group 20 mg/kg intraperitoneal injection
[45] = high-dose treatment group 40 mg/kg intraperitoneal injection
[46] = low-dose treatment group 10 mg/kg intraperitoneal injection
[47] = middle-dose treatment group 20 mg/kg intraperitoneal injection
[48] = intraperitoneal injection 10, 20, 40 mg/kg, vs ulcerative colitis model group

CC(C)=C1OC(C)=C(O[C@@H]2O[C@H](CO)[C@@H](O)[C@H](O)[C@H]2O)C1=O [Compound I-1, 4-O-β-D-glucosyl-5-methyl-2-(1-methylethylidene)-3(2H)-furanone]
Effect on the colon length (in words) [1]: can gradually restore the colon length
Average weight of mice ([1]; Day 1): 21.33 g
Average weight of mice ([1]; Day 2): 20.97 g
Average weight of mice ([1]; Day 3): 20.80 g
Average weight of mice ([1]; Day 4): 20.85 g
Average weight of mice ([1]; Day 5): 20.53 g
Average weight of mice ([1]; Day 6): 20.13 g
Average weight of mice ([1]; Day 7): 19.82 g
Average colon length of mice ([1]; day 7): 6.2 cm
Average weight of mice [2, 3]: 27.6 g
Rate of change in weight of mice [2, 3]: 100.0%
Average weight of mice [2, 4]: 27.9 g
Rate of change in weight of mice [2, 4]: 100.0%
Average weight of mice [2, 5]: 27.8 g
Rate of change in weight of mice [2, 5]: 100.0%
Average weight of mice [2, 6]: 27.6 g
Rate of change in weight of mice [2, 6]: 99.9%
Average weight of mice [2, 7]: 28.1 g
Rate of change in weight of mice [2, 7]: 100.6%
Average weight of mice [2, 8]: 27.8 g
Rate of change in weight of mice [2, 8]: 100.1%
Average weight of mice [2, 9]: 27.6 g
Rate of change in weight of mice [2, 9]: 100.0%
Average weight of mice [2, 10]: 28.0 g
Rate of change in weight of mice [2, 10]: 100.5%
Average weight of mice [2, 11]: 27.9 g
Rate of change in weight of mice [2, 11]: 100.3%
Average weight of mice [2, 12]: 27.6 g
Rate of change in weight of mice [2, 12]: 100.0%
Average weight of mice [2, 13]: 28.0 g
Rate of change in weight of mice [2, 13]: 100.3%
Average weight of mice [2, 14]: 27.9 g
Rate of change in weight of mice [2, 14]: 100.3%
Average weight of mice [2, 15]: 27.3 g
Rate of change in weight of mice [2, 15]: 99.1%
Average weight of mice [2, 16]: 27.2 g
Rate of change in weight of mice [2, 16]: 97.6%
Average weight of mice [2, 17]: 27.5 g
Rate of change in weight of mice [2, 17]: 99.1%
Average weight of mice [2, 18]: 27.2 g
Rate of change in weight of mice [2, 18]: 98.7%
Average weight of mice [2, 19]: 26.3 g
Rate of change in weight of mice [2, 19]: 94.3%
Average weight of mice [2, 20]: 27.2 g
Rate of change in weight of mice [2, 20]: 97.8%
Average weight of mice [2, 21]: 26.8 g
Rate of change in weight of mice [2, 21]: 97.0%
Average weight of mice [2, 22]: 25.9 g
Rate of change in weight of mice [2, 22]: 93.0%
Average weight of mice [2, 23]: 26.7 g
Rate of change in weight of mice [2, 23]: 96.0%
Average weight of mice [2, 24]: 26.3 g
Rate of change in weight of mice [2, 24]: 95.3%
Average weight of mice [2, 25]: 25.6 g
Rate of change in weight of mice [2, 25]: 91.6%
Average weight of mice [2, 26]: 26.2 g
Rate of change in weight of mice [2, 26]: 94.3%
Average weight of mice [2, 27]: 25.8 g
Rate of change in weight of mice [2, 27]: 93.5%
Average weight of mice [2, 28]: 25.3 g
Rate of change in weight of mice [2, 28]: 90.8%
Average weight of mice [2, 29]: 25.9 g
Rate of change in weight of mice [2, 29]: 93.2%
Average weight of mice [2, 30]: 25.6 g
Rate of change in weight of mice [2, 30]: 92.7%
Average weight of mice [2, 31]: 24.9 g
Rate of change in weight of mice [2, 31]: 89.1%
Average weight of mice [2, 32]: 25.6 g
Rate of change in weight of mice [2, 32]: 92.2%
Average weight of mice [2, 33]: 25.5 g
Rate of change in weight of mice [2, 33]: 92.2%
Average weight of mice [2, 34]: 24.4 g
Rate of change in weight of mice [2, 34]: 87.5%
Average weight of mice [2, 35]: 25.3 g
Rate of change in weight of mice [2, 35]: 91.1%
Average weight of mice [2, 36]: 25.4 g
Rate of change in weight of mice [2, 36]: 92.0%
Average weight of mice [2, 37]: 24.1 g
Rate of change in weight of mice [2, 37]: 86.4%
Average weight of mice [2, 38]: 25.0 g
Rate of change in weight of mice [2, 38]: 90.0%
Average weight of mice [2, 39]: 25.3 g
Rate of change in weight of mice [2, 39]: 91.5%
Average weight of mice [2, 40]: 23.8 g
Rate of change in weight of mice [2, 40]: 85.3%
Average weight of mice [2, 41]: 24.8 g
Rate of change in weight of mice [2, 41]: 89.2%
Average weight of mice [2, 42]: 25.2 g
Rate of change in weight of mice [2, 42]: 91.4%
Average weight of mice [2, 43]: 23.7 g
Rate of change in weight of mice [2, 43]: 84.9%
Average weight of mice [2, 44]: 24.7 g
Rate of change in weight of mice [2, 44]: 88.8%
Average colon length of mice [2, 45]: 6.52 cm
Average colon weight of mice [2, 45]: 0.2129 g
Unit colon weight of mice (colon weight/colon length) [2, 45]: 0.0327 g/cm
Average colon length of mice [2, 46]: 5.46 cm
Average colon weight of mice [2, 46]: 0.1909 g
Unit colon weight of mice (colon weight/colon length) [2, 46]: 0.0351 g/cm
Average colon length of mice [2, 47]: 6.04 cm
Average colon weight of mice [2, 47]: 0.2115 g
Unit colon weight of mice (colon weight/colon length) [2, 47]: 0.0351 g/cm
Colon length compared with the positive control group (in words) ([2]; high-dose treatment group 40 mg/kg intraperitoneal injection vs cyclosporine A 50 mg/kg): even better than the positive control group
Effect on the length of the colon (in words) [2, 48]: could gradually restore the length of the colon to normal
Effect on the reduction in the weight of mice (in words) [2, 48]: significant ameliorating effect on the reduction in the weight of mice
Effect on the unit colon weight (in words) [2, 48]: could significantly improve the unit colon weight
